Assay results published in patent US5925529A, “Method for discovery of peptide agonists” (The Regents of the University of California, priority 1995, dated 1999).
“Also recorded” adds a separate entry of the source.

Experiments:
uninjected oocytes = test: 45Ca release in uninjected Xenopus oocytes (control for receptor dependence); type: cell-based, Xenopus laevis
Procedure: (§1) Xenopus oocytes were harvested from female Xenopus laevis and processed using published techniques. Coleman, A., In Transcription and Translation: A Practical Approach, Oxford: IRL Press, pp. 271-302 (1984); Williams et al., PNAS 85: 4939-4943 (1988). To remove follicular cells, oocytes were incubated for 4 hr at room temperature with 1 mg/ml Sigma type II collagenase in modified Barth's solution (MBSH) without Ca^2+, then washed and incubated overnight at 18° C. in MBSH II (MBSH containing 1 mg/ml bovine serum albumin, 1 ml/ml Ficoll, 100 U/ml penicillin, 100 μg/ml streptomycin, and 50 μg/ml gentamicin). Dumont stage V oocytes were selected and microinjected with 5 to 50 nl of mRNA (1 μg/μl in 10 mM HEPES, pH 7.0). Microinjected oocytes were cultured for 24 hr at 18° C. in MBSH then selected for functional assays.
(§2) Agonist-induced increases in ^45 Ca^2+ release were assessed by published techniques. Williams et al., PNAS 85:4939-4943 (1988). […] The harvested medium was analyzed by scintillation counting to determine ^45 Ca^2+ release by the oocytes during each 10 min incubation. […] At this point, two additional 10 min collections were obtained, then medium including agonist was added and agonist-induced ^45 Ca^2+ release determined. […]

Human fMLF receptor = biological target: T1, Human fMLF receptor (Homo sapiens, UniProt P21462); test: Agonist-induced 45Ca release from Xenopus oocytes expressing the formyl peptide receptor; type: cell-based; conditions: Xenopus oocytes injected with human fMLF receptor cRNA; compared with fMLF (FIG. 2)
T1 construct: expressed in transfected cells; host or cells: Xenopus laevis oocytes microinjected with cRNA
T1 sequence (P21462 1-350): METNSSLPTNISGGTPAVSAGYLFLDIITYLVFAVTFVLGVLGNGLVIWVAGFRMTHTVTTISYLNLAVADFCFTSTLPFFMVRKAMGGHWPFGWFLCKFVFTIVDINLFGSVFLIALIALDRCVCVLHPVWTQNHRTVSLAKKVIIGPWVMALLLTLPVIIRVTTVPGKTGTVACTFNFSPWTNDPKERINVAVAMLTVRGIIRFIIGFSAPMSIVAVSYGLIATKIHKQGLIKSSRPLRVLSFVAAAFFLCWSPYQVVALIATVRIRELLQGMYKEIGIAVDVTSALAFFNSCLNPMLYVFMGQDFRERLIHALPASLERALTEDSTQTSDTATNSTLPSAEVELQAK
Procedure: as §1, with “Dumont stage V oocytes were selected and microinjected with 5 to 50 nl of mRNA (1 μg/μl in 10 mM HEPES, pH 7.0). Microinjected oocytes were cultured for 24 hr at 18° C. in MBSH then selected for functional assays.” left out
Agonist-induced increases in ^45 Ca^2+ release were assessed by published techniques. […] The harvested medium was analyzed by scintillation counting to determine ^45 Ca^2+ release by the oocytes during each 10 min incubation. […] At this point, two additional 10 min collections were obtained, then medium including agonist was added and agonist-induced ^45 Ca^2+ release determined.
Formyl peptide receptor response to its classical agonist fMLF (SEQ ID NO:12) and to the new agonist derived from tethered ligand library. […] Xenopus oocytes were microinjected with 5 ng cRNA transcribed from this construct, cultured for 24 hours, and ^45 Ca release in response to the indicated concentration of peptides was measured as described above.

[1] = biological target: T2, wild type human thrombin receptor (Homo sapiens, UniProt P25116); test: Agonist-induced 45Ca release from Xenopus oocytes expressing the wild type thrombin receptor; type: cell-based; conditions: Xenopus oocytes expressing epitope tagged wild type human thrombin receptor; compared with SFLLR peptide (FIG. 5A)
T2 construct: expressed in transfected cells; host or cells: Xenopus laevis oocytes (cRNA)
T2 sequence (P25116 22-425): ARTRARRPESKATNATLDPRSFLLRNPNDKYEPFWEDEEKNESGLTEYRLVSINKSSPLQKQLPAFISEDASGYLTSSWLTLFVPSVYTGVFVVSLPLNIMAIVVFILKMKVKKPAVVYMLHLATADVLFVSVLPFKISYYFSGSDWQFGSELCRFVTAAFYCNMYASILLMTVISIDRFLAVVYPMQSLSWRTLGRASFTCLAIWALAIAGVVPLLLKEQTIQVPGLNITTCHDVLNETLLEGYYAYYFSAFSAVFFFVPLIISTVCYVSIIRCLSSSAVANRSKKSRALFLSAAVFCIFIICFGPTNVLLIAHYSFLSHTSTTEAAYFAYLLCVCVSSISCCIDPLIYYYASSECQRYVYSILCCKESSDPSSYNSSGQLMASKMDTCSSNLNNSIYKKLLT
Procedure: as §1, §2

formyl peptide receptor = conditions: compared with f-MLF; cited from earlier work

Substance | signaling (45Ca release) in uninjected oocytes (uninjected oocytes) | agonist activity / signaling (45Ca release) at the formyl peptide receptor (Human fMLF receptor) | agonist activity / signaling (45Ca release) at the thrombin receptor [1] | activity of the unformylated peptide relative to f-MLF (fold less activity) (formyl peptide receptor)
GFIYF | did not cause signaling | did not cause signaling | nearly as effective as the SFLLR; also recorded: receptor-dependent | –
MLF | – | – | – | at least 1000 fold
